Test results taken from patent US10792248B2, “Aqueous suspension preparation comprising nanoparticles of macrolide antibacterial agent” (ACTIVUS PHARMA CO., LTD., priority 2013, dated 2020).
Converted amounts (≈) assume the structure as drawn. Where two headings read alike, the source gives them in different places.

Key:
[1] = system: Pseudomonas aeruginosa; assay: Minimum inhibitory concentration (MIC) test, broth microdilution method; assay type: cell-based; conditions: 35±1° C., 18 to 24 hours, replicates
Protocol: (§1) An MIC test was conducted by applying the minimum inhibitory concentration (MIC) measurement method by the broth microdilution method (the standard method of Japanese Society of Chemotherapy). The clarithromycin suspension prepared in Example 6 (1) (test substance 1) was used as a test substance. An unpulverized clarithromycin suspension (test substance 2) and a clarithromycin solution in DMSO (test substance 3) were used as controls for comparisons.
(§2) Each of the test substances was stirred for 15 seconds or more using a vortex mixer before dilution. The clarithromycin-containing samples (test substances 1 to 3) were diluted with Mueller Hinton II broth to be a concentration of 250 μg/mL, and then two-fold diluted serially to prepare mediums containing the each sample at a final drug concentration of 0.012 to 25 μg/mL, which were used for inoculation of Staphylococcus aureus subsp. aureus. Similarly, the samples were diluted with Mueller Hinton II broth to a concentration of 1000 μg/mL, and then two-fold diluted serially to prepare mediums containing the each sample at a final drug concentration of 0.049 to 100 μg/mL, which were used for inoculating Pseudomonas aeruginosa.
(§3) To a U-shaped well microplate, 0.1±0.02 mL per well of the each prepared test substance-containing medium was dispensed. Drug-free medium was dispensed into two wells as a control.
(§4) Staphylococcus aureus subsp. aureus or Pseudomonas aeruginosa was cultured overnight in Mueller Hinton II agar medium. The fresh cultured bacterium on the agar plate was suspended in equivalent to 0.5 McFarand (about 10^8 CFU/mL) with sterilized saline and further diluted tenfold (about 10^7 CFU/mL) with sterilized saline to prepare a bacterium liquid.
(§5) To each of the wells to which the test substance-containing medium or the test substance-free medium was dispensed, 0.005 mL of the bacterium liquid of Staphylococcus aureus subsp. aureus or Pseudomonas aeruginosa prepared in the above (2-2) was inoculated (final amount of bacterium liquid: about 10^4 CFU/well). The bacterium liquid was not inoculated to a part of the wells with the test substance-free medium to prepare negative control wells. After inoculation, the media were cultured at 35±1° C. for 18 to 24 hours.
(§6) After confirming growth in the control wells containing the test substance-free media, the minimum inhibitory concentration (MIC) was determined as the minimum drug concentration in which the growth of bacterium was not detected with the naked eye. […] When turbidity or a precipitation was not observed with the naked eye, or when only one precipitation with the diameter of 1 mm or less was observed, the growth was determined negative (−).

[2] = system: Staphylococcus aureus subsp. aureus; assay: as above; assay type: cell-based; conditions: 35±1° C., 18 to 24 hours, replicates
Protocol: as §1, §2, §3, §4, §5, §6

[3] = Stability test of nanoized clarithromycin suspension formulation, residual ratio by HPLC (Example 10); assay type: physicochemical; conditions: 5° C., 25° C. and 40° C., 14 days
Protocol: A quantity of 6 to 8 g of the nanoized clarithromycin suspension formulations (clarithromycin concentrations 0.3% and 1.0%) produced in Example 7 (1) were weighed in a 9 mL-screw vial, allowed to stand in thermo-hygrostats each set at 5° C., 25° C., and 40° C. to carry out the stability test over a period of 14 days. On days 7 and 14, the clarithromycin concentrations were determined by high performance liquid chromatography (HPLC), and the residual ratio was determined as compared to the clarithromycin concentration immediately after the formulation which was taken as 100% to evaluate the stability. The HPLC analysis conditions were as follows.
Apparatus: Waters alliance
Column: Inertsil ODS 4.6 mm×150 mm
Column temperature: 50° C.
Detection wavelength: 210 nm

[4] = formulation with effective average diameter of less than 2000 nm combined with a surface stabilizer (Patent Literature 4); cited from earlier work
[5] = system: nontuberculous mycobacteria; conditions: cited from earlier work
[6] = cited from earlier work
[7] = rabbit, in vivo; cited from earlier work

In the case of `CC[C@H]1OC(=O)[C@H](C)[C@@H](O[C@H]2C[C@@](C)(OC)[C@@H](O)[C@H](C)O2)[C@H](C)[C@@H](O[C@@H]2O[C@H](C)C[C@H](N(C)C)[C@H]2O)[C@](C)(OC)C[C@@H](C)C(=O)[C@H](C)[C@@H](O)[C@]1(C)O` [Clarithromycin solution in DMSO, clarithromycin], the MIC [1] is reported as greater than 100 µg/mL, the Minimum inhibitory concentration [1] is reported as greater than 100 µg/mL and the MIC [2] is reported as 0.391 µg/mL (≈ 0.523 µM). For the same compound, the Minimum inhibitory concentration [2] was 0.391 µg/mL (≈ 0.523 µM).
For `CC[C@H]1OC(=O)[C@H](C)[C@@H](O[C@H]2C[C@@](C)(OC)[C@@H](O)[C@H](C)O2)[C@H](C)[C@@H](O[C@@H]2O[C@H](C)C[C@H](N(C)C)[C@H]2O)[C@](C)(OC)C[C@@H](C)C(=O)[C@H](C)[C@@H](O)[C@]1(C)O` [clarithromycin], the “stability (decomposition) in the suspension formulations” value [3] is listed as “not decomposed but stable”, the oral bioavailability [4] is listed as “higher oral bioavailability” and the “effectiveness against nontuberculous mycobacteria relative to azithromycin” value [5] is listed as “four to eight times as effective as azithromycin”. The solubility in acetone ([6]; acetone) was “slightly soluble”, the solubility in chloroform ([6]; chloroform) was “slightly soluble” and the solubility in ethanol ([6]; ethanol) was “very slightly soluble”. The solubility in ether ([6]; ether) was “very slightly soluble”, the solubility ([6]; formulation with effective average diameter of less than 2000 nm combined with a surface stabilizer (Patent Literature 4)) was “higher solubility” and the solubility in methanol ([6]; methanol) was “very slightly soluble”. The solubility ([6]; pulverized with L-ascorbic-acid 2-glycoside (Non Patent Literature 1)) was “enhanced solubility”, the solubility in water ([6]; water) was “practically insoluble” and the “retention in the cornea” value [7] was “retained in the cornea”.
